Results from US6962920B2, “Pyrimidine derivatives and methods of making and using these derivatives” (Duquesne University of the Holy Ghost, priority 1992, dated 2005).
Where two headings read alike, the source gives them in different places. Blank lines part the entries; values can stand above or below the molecule they belong to.

Key:
FaDu cells = test: Protection of FaDu cells from growth inhibition by hypoxanthine, thymidine, leucovorin; format: cell-based, human
Description: Compound 113-161 was also tested for its ability to inhibit the growth of FaDu human squamous cell carcinoma cell lines. Performance was tested against MTX using hypoxanthine (Hx) and Thymidine (TdR).
Protection after 120 hours with di-LV was also determined. All of the tested compounds reversed inhibition with leucovorin.

FaDu = test: Growth inhibition of FaDu human squamous carcinoma cell line; format: cell-based
L. casei DHFR = L. casei DHFR (Lacticaseibacillus casei, UniProt P00381); test: Inhibition of Lactobacillus casei DHFR; format: biochemical
CCRF-CEM DHFR = target: T1, CCRF-CEM DHFR (Homo sapiens, UniProt P00374); test: Inhibition of DHFR isolated from human CCRF-CEM leukemic cells; format: biochemical; settings: Table 17
T1 construct: DHFR isolated from human CCRF-CEM leukemic cells; endogenous in cells; host or cells: CCRF-CEM human leukemic cells

human recombinant TS = human recombinant TS (Homo sapiens, UniProt P04818); test: Inhibition of human recombinant TS; format: biochemical; settings: Table 17; read-out: Human REC TS IC50
CCRF-CEM cells = test: Growth inhibition of CCRF-CEM human leukemia cells, continuous exposure; format: cell-based
R30dm cells = test: Growth inhibition of R30dm subline (decreased polyglutamate synthase); format: cell-based; settings: Homo sapiens
A253 = test: Growth inhibition of A253 human squamous carcinoma cell line; format: cell-based; settings: Table 19, continuous exposure (0 to 120 hours)
Description: The performance of these compounds was evaluated against MTX.

[1] = target: T2, CCRF-CEM human leukemia cell folylpolyglutamate synthetase (Homo sapiens, UniProt Q05932); test: Substrate activity for CCRF-CEM folylpolyglutamate synthetase; format: biochemical; settings: Table 18
T2 construct: substrates for human leukemia cell CCRF-CEM folylpolyglutamate synthetase; endogenous in cells; host or cells: CCRF-CEM human leukemia cells
T2 sequence (Q05932 43-587): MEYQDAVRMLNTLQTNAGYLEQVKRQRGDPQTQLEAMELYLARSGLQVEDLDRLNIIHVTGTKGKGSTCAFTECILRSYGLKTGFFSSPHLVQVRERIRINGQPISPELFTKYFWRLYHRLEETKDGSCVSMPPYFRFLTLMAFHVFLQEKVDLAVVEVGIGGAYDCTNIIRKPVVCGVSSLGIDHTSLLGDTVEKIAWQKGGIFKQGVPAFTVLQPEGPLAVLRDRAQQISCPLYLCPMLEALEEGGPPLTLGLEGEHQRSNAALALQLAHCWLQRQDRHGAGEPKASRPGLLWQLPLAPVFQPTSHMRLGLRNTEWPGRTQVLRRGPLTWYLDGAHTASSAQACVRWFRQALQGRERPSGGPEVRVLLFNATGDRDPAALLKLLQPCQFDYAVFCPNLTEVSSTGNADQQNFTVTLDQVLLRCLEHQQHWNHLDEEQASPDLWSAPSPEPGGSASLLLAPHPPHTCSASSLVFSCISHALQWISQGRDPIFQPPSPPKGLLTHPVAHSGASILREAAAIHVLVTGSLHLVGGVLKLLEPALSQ
Description: (§1) Aminopterin is a classical 2,4-diamino antifolate substrate.
(§2) Compounds 33 and 34 were also evaluated for their substrate activity in CCRF-CEM human leukemia folylpolyglutamate synthetase; the compounds were compared against aminopterin.

Pc DHFR [2] = target: T3, Pc DHFR (Pneumocystis carinii, UniProt P16184); format: biochemical; settings: Table 7; IC50 RL DHFR divided by IC50 Pc DHFR
T3 sequence (P16184 1-206): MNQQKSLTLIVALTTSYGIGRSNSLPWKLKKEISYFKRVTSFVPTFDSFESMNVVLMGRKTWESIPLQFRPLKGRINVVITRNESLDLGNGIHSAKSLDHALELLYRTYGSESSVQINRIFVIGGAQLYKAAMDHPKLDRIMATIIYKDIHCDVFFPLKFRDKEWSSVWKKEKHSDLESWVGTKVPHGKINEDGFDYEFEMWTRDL
Description: (§3) The selectivity ratio is a measure of the selectivity of a compound for Pc DHFR or Tg DHFR and is expressed as the IC50 value of the DHFR from rate liver (RL) divided by the IC50 value of either the Pc DHFR or the Tg DHFR, depending on which organism the compounds are being tested against. For example, the selectivity ratio of a compound is calculated by the following formula: [formula]

Tg DHFR = target: T4, Tg DHFR (Toxoplasma gondii, UniProt Q07422); test: biochemical; format: biochemical; settings: Table 7
T4 sequence (Q07422 1-610): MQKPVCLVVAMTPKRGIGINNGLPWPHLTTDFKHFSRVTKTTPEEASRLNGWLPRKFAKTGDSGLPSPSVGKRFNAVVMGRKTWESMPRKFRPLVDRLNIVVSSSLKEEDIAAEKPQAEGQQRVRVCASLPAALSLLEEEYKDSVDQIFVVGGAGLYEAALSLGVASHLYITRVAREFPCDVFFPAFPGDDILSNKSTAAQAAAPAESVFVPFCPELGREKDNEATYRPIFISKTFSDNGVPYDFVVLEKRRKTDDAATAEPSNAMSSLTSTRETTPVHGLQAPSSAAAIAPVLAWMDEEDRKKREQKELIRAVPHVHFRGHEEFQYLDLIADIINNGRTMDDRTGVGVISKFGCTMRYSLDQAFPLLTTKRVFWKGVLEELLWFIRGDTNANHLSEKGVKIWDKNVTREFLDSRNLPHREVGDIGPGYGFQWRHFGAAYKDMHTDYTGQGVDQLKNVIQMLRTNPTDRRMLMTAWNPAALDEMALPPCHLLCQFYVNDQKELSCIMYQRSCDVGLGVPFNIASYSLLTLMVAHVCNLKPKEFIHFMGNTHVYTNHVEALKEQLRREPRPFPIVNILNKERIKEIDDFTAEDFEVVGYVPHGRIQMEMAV
Description: as §3

RL DHFR = target: T5, RL DHFR (Rattus norvegicus, UniProt Q920D2); test: Inhibition of DHFR from rat liver; format: biochemical; settings: Table 7; read-out: RL DHFR IC50
T5 construct: Toxoplasmosis gondii (Tg) and rat liver (RL); from tissue; host or cells: rat liver
T5 sequence (Q920D2 1-187): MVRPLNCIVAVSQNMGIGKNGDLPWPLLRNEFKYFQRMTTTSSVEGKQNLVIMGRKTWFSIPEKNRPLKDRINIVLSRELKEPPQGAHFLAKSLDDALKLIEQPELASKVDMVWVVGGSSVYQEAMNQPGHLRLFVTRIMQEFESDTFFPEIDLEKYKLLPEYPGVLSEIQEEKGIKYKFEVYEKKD
Description: as §3

Pc DHFR [3] = target: T3, Pc DHFR; test: biochemical; settings: Table 7; read-out: Pc DHFR IC50
R1 cells = test: Growth inhibition of R1 subline (increased DHFR); format: cell-based; settings: Homo sapiens
R2 cells = test: Growth inhibition of R2 subline (MTX-transport deficient); format: cell-based; settings: Homo sapiens
L. casei TS = L. casei TS (Lacticaseibacillus casei, UniProt P00469); test: Inhibition of thymidylate synthase (TS), L. casei; format: biochemical, Lactobacillus casei
[4] = target: E-coli thymidylate synthase (ecTS) (Escherichia coli, UniProt P0A884); test: Inhibition of E. coli thymidylate synthase; format: biochemical; settings: b353; read-out: inhibition of TS from E. coli
Description: All of the compounds were tested against human cells, L. casei, E. coli, and S. faecium.

TS from P. carinii = TS from P. carinii (Pneumocystis carinii, UniProt P13100); test: Inhibition of P. carinii TS; format: biochemical; settings: b353
[5] = substrate: Nc1nc(N)c2c(CCc3ccc(C(=O)N[C@@H](CCC(=O)O)C(=O)O)cc3)coc2n1; test: Substrate activity for CCRF-CEM folylpolyglutamate synthetase; format: biochemical, human; settings: other: Table 18; substrate for FPGS
Description: as §1, §2

[6] = substrate: Nc1nc(N)c2nc(CNc3ccc(C(=O)N[C@@H](CCC(=O)O)C(=O)O)cc3)cnc2n1; test: as above; format: biochemical, human; settings: substrate for FPGS
Description: as §1, §2

[7] = Table 15, continuous (120 hours) exposure, read-out: Growth inhibition EC50, FaDu
[8] = Table 19, continuous exposure (0 to 120 hours), read-out: Growth inhibition EC50, CCRF-CEM
[9] = read-out: Growth inhibition EC50

human recombinant TS, sequence (P04818 whole entry): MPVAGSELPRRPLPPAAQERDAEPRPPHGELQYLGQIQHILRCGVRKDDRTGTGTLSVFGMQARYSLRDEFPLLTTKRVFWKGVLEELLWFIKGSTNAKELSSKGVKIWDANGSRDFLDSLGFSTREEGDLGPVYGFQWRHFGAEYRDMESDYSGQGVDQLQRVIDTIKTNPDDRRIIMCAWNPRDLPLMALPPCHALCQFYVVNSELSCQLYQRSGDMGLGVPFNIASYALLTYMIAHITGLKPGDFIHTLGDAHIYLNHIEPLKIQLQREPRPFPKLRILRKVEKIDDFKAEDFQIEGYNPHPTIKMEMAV
L. casei DHFR, sequence (P00381 whole entry): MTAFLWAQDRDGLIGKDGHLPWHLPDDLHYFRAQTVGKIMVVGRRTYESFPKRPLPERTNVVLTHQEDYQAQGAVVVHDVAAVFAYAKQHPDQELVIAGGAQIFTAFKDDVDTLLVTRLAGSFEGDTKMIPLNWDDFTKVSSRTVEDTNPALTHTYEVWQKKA
T1 sequence (P00374 whole entry): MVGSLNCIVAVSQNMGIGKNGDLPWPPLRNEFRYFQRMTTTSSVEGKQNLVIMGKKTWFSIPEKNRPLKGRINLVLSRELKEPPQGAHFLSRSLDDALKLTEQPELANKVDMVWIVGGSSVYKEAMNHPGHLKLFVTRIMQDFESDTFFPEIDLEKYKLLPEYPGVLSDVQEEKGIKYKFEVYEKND
TS from P. carinii, sequence (P13100 whole entry): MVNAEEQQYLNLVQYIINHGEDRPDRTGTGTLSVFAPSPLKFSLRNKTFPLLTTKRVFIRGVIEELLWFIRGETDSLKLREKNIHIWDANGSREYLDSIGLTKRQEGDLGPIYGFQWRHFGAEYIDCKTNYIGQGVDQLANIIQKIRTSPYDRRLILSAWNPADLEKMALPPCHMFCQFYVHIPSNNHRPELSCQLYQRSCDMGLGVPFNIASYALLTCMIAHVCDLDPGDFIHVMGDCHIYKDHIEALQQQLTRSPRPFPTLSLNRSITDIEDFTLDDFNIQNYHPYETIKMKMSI
L. casei TS, sequence (P00469 whole entry): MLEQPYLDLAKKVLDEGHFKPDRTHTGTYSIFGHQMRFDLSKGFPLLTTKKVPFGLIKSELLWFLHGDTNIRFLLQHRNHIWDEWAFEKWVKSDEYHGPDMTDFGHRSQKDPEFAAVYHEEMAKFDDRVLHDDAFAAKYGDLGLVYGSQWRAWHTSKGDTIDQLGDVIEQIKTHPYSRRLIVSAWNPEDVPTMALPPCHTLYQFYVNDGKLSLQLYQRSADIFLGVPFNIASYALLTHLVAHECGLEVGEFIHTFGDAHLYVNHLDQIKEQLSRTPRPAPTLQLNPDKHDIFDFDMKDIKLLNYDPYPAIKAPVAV
E-coli thymidylate synthase (ecTS), sequence (P0A884 whole entry): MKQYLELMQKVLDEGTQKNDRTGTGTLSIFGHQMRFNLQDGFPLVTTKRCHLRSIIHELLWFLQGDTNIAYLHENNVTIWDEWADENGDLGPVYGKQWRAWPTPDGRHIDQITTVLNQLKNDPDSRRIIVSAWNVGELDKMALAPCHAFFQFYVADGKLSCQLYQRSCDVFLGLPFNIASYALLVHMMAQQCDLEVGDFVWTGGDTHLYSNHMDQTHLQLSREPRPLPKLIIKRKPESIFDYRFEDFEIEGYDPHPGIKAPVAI

Molecule: Cc1nc(N)nc2[nH]cc(CCc3ccc(C(=O)N[C@@H](CCC(=O)O)C(=O)O)cc3)c12 [Compound 113-161]
protection study with hypoxanthine (Hx) and thymidine (TdR) (FaDu cells): almost completely reversed the TS inhibition

EC50 (FaDu; [7]): 1000 ± 100 nM
Molecule: CN(Cc1ccc(S(=O)(=O)N2CCOCC2)cc1)c1ccc2c3c(cccc13)C(=N)N2 [AG331]

Molecule: Nc1nc(N)c2c(CCc3ccc(C(=O)N[C@@H](CCC(=O)O)C(=O)O)cc3)coc2n1 [Compound 33, N-[4-[2-(2,4-diaminofuro[2,3-d]pyrimidin-5-yl)ethyl]-benzoyl]-L-glutamic acid]
IC50 (L. casei DHFR; Table 17, read-out: L. casei DHFR IC50): 100 nM | IC50 (CCRF-CEM DHFR): 250 nM | IC50 (human recombinant TS): 220000 nM | EC50 (CCRF-CEM cells; [8]): 290 nM | EC50 (R30dm cells; Table 19, continuous exposure (0 to 120 hours), read-out: Growth inhibition EC50, R30DM): 4250 nM | EC50 (A253): 540 ± 90 nM | EC50 (FaDu; Homo sapiens, FaDu, Table 19, continuous exposure (0 to 120 hours), read-out: Growth inhibition EC50, FaDu): 18 ± 20 nM | Vmax(rel) [1]: 0.65 ± 0.01

Selectivity Ratio: RL DHFR/Pc DHFR (Pc DHFR [2]): <2.4 | IC50 (RL DHFR): 56300 nM | IC50 (Pc DHFR [3]): > 23000 nM
Molecule: COc1cc(NCc2c[nH]c3nc(N)nc(N)c23)cc(OC)c1OC [Compound 1, 2,4-diamino-5-[(3′,4′,5′-trimethoxyanilino)methyl]pyrrolo[2,3-d]pyrimidine]
Selectivity Ratio: RL DHFR/Tg (Tg DHFR; IC50 RL DHFR divided by IC50 Tg DHFR): 7.0 | IC50 (Tg DHFR; read-out: Tg DHFR IC50): 8100 nM

Molecule: CN(Cc1cnc2nc(N)nc(N)c2n1)c1ccc(C(=O)N[C@@H](CCC(=O)O)C(=O)O)cc1 [MTX, methotrexate, reference compound]
EC50 (R1 cells; [9]): 675 ± 35 nM | EC50 (R1 cells; read-out: Growth inhibition EC50, R1): 595 ± 5 nM | EC50 (R1 cells; read-out: Growth inhibition EC50, R1 (↑ DHFR)): 6445 ± 55 nM | EC50 (R2 cells; [9]): 1600 ± 100 nM | EC50 (R2 cells; read-out: Growth inhibition EC50, R2): 3100 ± 100 nM | EC50 (R2 cells; read-out: Growth inhibition EC50, R2 (↓ transport)): 2350 ± 550 nM | EC50 (FaDu; Homo sapiens, FaDu, 120 h, read-out: Growth inhibition EC50, FaDu): 31 ± 2 nM | EC50 (FaDu; Homo sapiens, FaDu, read-out: Growth inhibition EC50): 11.3 ± 1.8 nM | EC50 (FaDu; Homo sapiens, FaDu, read-out: Growth inhibition EC50, FaDu): 17 ± 2 nM

IC50 (CCRF-CEM DHFR): 30500 nM | IC50 (human recombinant TS): 63000 nM | EC50 (CCRF-CEM cells; [8]): 48000 nM | Vmax(rel) [1]: 0.6
Molecule: Nc1nc(N)c2c(CNCc3ccc(C(=O)N[C@@H](CCC(=O)O)C(=O)O)cc3)coc2n1 [Compound 34]

EC50 (FaDu; [7]): 1700 ± 200 nM
Molecule: C#CCN(Cc1ccc2nc(N)[nH]c(=O)c2c1)c1ccc(C(=O)N[C@@H](CCC(=O)O)C(=O)O)cc1 [PDDF]

Molecule: Nc1nc2[nH]cc(CNc3ccc(C(=O)N[C@@H](CCC(=O)O)C(=O)O)cc3)c2c(=O)[nH]1 [Compound 407]
IC50 (L. casei DHFR): 6900 nM | IC50 (L. casei TS): 46000 nM | IC50 [4]: > 12000 nM | IC50 (TS from P. carinii): 5800 nM | EC50 (CCRF-CEM cells; Table 23, continuous exposure, read-out: Growth inhibition EC50, CEM (sensitive)): 79 nM | EC50 (R30dm cells; Table 23, continuous exposure, read-out: Growth inhibition EC50, R30dm (decreased FPGS)): 120 ± 10 nM | EC50 (R1 cells; Table 23, continuous exposure, read-out: Growth inhibition EC50, R1 (↑ DHFR)): 200 ± 20 nM | EC50 (R2 cells; Table 23, continuous exposure, read-out: Growth inhibition EC50, R2 (↓ transport)): 310 ± 30 nM

B1: CCRF-CEM human leukemia cell folylpolyglutamate synthetase (Homo sapiens) (protein)
chain: MEYQDAVRMLNTLQTNAGYLEQVKRQRGDPQTQLEAMELYLARSGLQVEDLDRLNIIHVTGTKGKGSTCAFTECILRSYGLKTGFFSSPHLVQVRERIRINGQPISPELFTKYFWRLYHRLEETKDGSCVSMPPYFRFLTLMAFHVFLQEKVDLAVVEVGIGGAYDCTNIIRKPVVCGVSSLGIDHTSLLGDTVEKIAWQKGGIFKQGVPAFTVLQPEGPLAVLRDRAQQISCPLYLCPMLEALEEGGPPLTLGLEGEHQRSNAALALQLAHCWLQRQDRHGAGEPKASRPGLLWQLPLAPVFQPTSHMRLGLRNTEWPGRTQVLRRGPLTWYLDGAHTASSAQACVRWFRQALQGRERPSGGPEVRVLLFNATGDRDPAALLKLLQPCQFDYAVFCPNLTEVSSTGNADQQNFTVTLDQVLLRCLEHQQHWNHLDEEQASPDLWSAPSPEPGGSASLLLAPHPPHTCSASSLVFSCISHALQWISQGRDPIFQPPSPPKGLLTHPVAHSGASILREAAAIHVLVTGSLHLVGGVLKLLEPALSQ
notes: substrates for human leukemia cell CCRF-CEM folylpolyglutamate synthetase; endogenous in cells; host or cells: CCRF-CEM human leukemia cells
Km [5]: 8.5 ± 2.1 µM | Km ([6]; other: Table 10): 4.3 ± 0.2 µM | Km ([6]; other: Table 18): 4.8 ± 0.7 µM
